In US6274715A, “Tricyclic erythromycin derivatives” (priority 1997, dated 2001):
≈ marks a conversion by molar mass, not a printed value.

Experiments:
Assay type in all cases: cell-based
ESCHERICHIA COLI SS = assay: In vitro antibacterial activity, MIC, BHI agar dilution; conditions: E. coli SS, unit assumed
[1] = system: PROVIDENCIA STUARTII CMX 640; conditions: P. stuartii CMX 640; BHI agar; unit assumed
[2] = system: STAPHYLOCOCCUS AUREUS NCTC10649M; assay: In vitro antibacterial activity, MIC, BHI agar dilution; conditions: S. aureus NCTC10649M, unit assumed
[3] = system: STAPHYLOCOCCUS AUREUS 1775; assay: as above; conditions: S. aureus 1775, unit assumed
[4] = system: PSEUDOMONAS AERUGINOSA BMH10; assay: as above; conditions: P. aeruginosa BMH10, unit assumed
[5] = system: STAPHYLOCOCCUS AUREUS A5177; assay: as above
[6] = system: PSEUDOMONAS AERUGINOSA K799/61; assay: as above; conditions: P. aeruginosa K799/61, unit assumed
ESCHERICHIA COLI DC-2 = assay: as above; conditions: E. coli DC-2, unit assumed
[7] = system: PSEUDOMONAS AERUGINOSA DPHD-5263; assay: as above; conditions: P. aeruginosa DPHD-5263, unit assumed
ESCHERICHIA COLI KNK 437 = conditions: E. coli KNK 437; BHI agar; unit assumed
[8] = system: KLEBSIELLA PNEUMONIAE ATCC 8045; assay: In vitro antibacterial activity, MIC, BHI agar dilution; conditions: K. pneumoniae ATCC 8045, unit assumed
[9] = system: PSEUDOMONAS AERUGINOSA K799/WT; assay: as above; conditions: P. aeruginosa K799/WT, unit assumed
[10] = system: STAPHYLOCOCCUS EPIDERMIDIS 3519; conditions: S. epidermidis 3519; BHI agar; unit assumed
M[…] ATCC 9341 = assay: In vitro antibacterial activity, MIC, BHI agar dilution; conditions: M. luteus ATCC 9341, unit assumed
Summary of the method: (§1)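 MIC was read visually as the lowest drug level with no growth, a slight haze or sparsely isolated colonies relative to a compound-free growth control. Organisms were spotted at 1:100 dilution (1:10 for slow-growing strains) onto Brain Heart Infusion agar containing serial compound dilutions and incubated 20 to 24 hours at 35-37° C.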

M[…] ATCC 4698 = assay: as above; conditions: M. luteus ATCC 4698, unit assumed
Summary of the method: as §1

STR[…] 508 = assay: as above; conditions: S. agalactiae CMX 508, unit assumed
Summary of the method: as §1

EN[…] ATCC 8043 = assay: as above; conditions: E. faecium ATCC 8043, unit assumed
Summary of the method: as §1

[11] = system: PSEUDOMONAS AERUGINOSA DPHD-2862; assay: as above; conditions: P. aeruginosa DPHD-2862, unit assumed
[12] = system: STREPTOCOCCUS PYOGENES EES61; assay: as above; conditions: S. pyogenes EES61, unit assumed
[13] = system: STREPTOCOCCUS PYOGENES PIU 2548; assay: as above; conditions: S. pyogenes PIU 2548, unit assumed
ESCHERICHIA COLI JUHL = conditions: E. coli JUHL; BHI agar; unit assumed
[14] = system: STAPHYLOCOCCUS AUREUS A-5278; assay: In vitro antibacterial activity, MIC, BHI agar dilution; conditions: S. aureus A-5278, unit assumed
ESCHERICHIA COLI H560 = assay: as above; conditions: E. coli H560, unit assumed
[15] = system: STAPHYLOCOCCUS AUREUS CMX 642A; assay: as above; conditions: S. aureus CMX 642A, unit assumed
[16] = system: ENTEROBACTER AEROGENES ATCC 13048; assay: as above; conditions: E. aerogenes ATCC 13048, unit assumed
[17] = system: MYCOBACTERIUM SMEGMATIS ATCC 114; assay: as above; conditions: M. smegmatis ATCC 114, unit assumed
CANDIDA ALBICANS CCH 442 = assay: as above; conditions: C. albicans CCH 442, unit assumed
[18] = system: STAPHYLOCOCCUS AUREUS CMX 553; assay: as above; conditions: S. aureus CMX 553, unit assumed
[19] = system: STAPHYLOCOCCUS AUREUS ATCC 6538P; assay: as above; conditions: S. aureus ATCC 6538P, 35-37° C., 20 to 24 hours, unit assumed
[20] = system: PSEUDOMONAS AERUGINOSA 5007; assay: as above; conditions: P. aeruginosa 5007, unit assumed
[21] = system: STREPTOCOCCUS BOVIS A-5169; assay: as above; conditions: S. bovis A-5169, unit assumed
[22] = system: STREPTOCOCCUS PYOGENES 930; assay: as above; conditions: S. pyogenes 930, unit assumed
PSEUDOMONAS CEPACIA 296I = assay: as above; conditions: P. cepacia 296I, unit assumed

| SMILES | MIC (ESCHERICHIA COLI SS) [µg/mL] | MIC [1] [µg/mL] | MIC [2] [µg/mL] | MIC [3] [µg/mL] | MIC [4] [µg/mL] | MIC [6] [µg/mL] | MIC (ESCHERICHIA COLI DC-2) [µg/mL] | MIC [7] [µg/mL] | MIC (ESCHERICHIA COLI KNK 437) [µg/mL] | MIC [8] [µg/mL] | MIC [9] [µg/mL] | MIC [10] [µg/mL] | MIC (M[…] ATCC 9341) [µg/mL] | MIC (M[…] ATCC 4698) [µg/mL] | MIC (STR[…] 508) [µg/mL] | MIC (EN[…] ATCC 8043) [µg/mL] | MIC [11] [µg/mL] | MIC [12] [µg/mL] | MIC [13] [µg/mL] | MIC (ESCHERICHIA COLI JUHL) [µg/mL] | other results |
| --- | --- | --- | --- | --- | --- | --- | --- | --- | --- | --- | --- | --- | --- | --- | --- | --- | --- | --- | --- | --- | --- |
| CC[C@H]1OC(=O)[C@H](C)[C@@H](O[C@H]2C[C@@](C)(OC)[C@@H](O)[C@H](C)O2)[C@H](C)[C@@H](O[C@@H]2O[C@H](C)C[C@H](N(C)C)[C@H]2O)[C@@H](C)C[C@@H](C)C2=NCCN3C(=O)O[C@@]1(C)[C@H]3[C@H]2C [Example 14] | 0.39 (≈ 0.508 µM) | > 100 | 0.2 (≈ 0.26 µM) | > 100 | 100 (≈ 130 µM) | 3.1 (≈ 4.04 µM) | 50 (≈ 65.1 µM) | > 100 | 100 (≈ 130 µM) | 25 (≈ 32.6 µM) | 100 (≈ 130 µM) | 0.2 (≈ 0.26 µM) | 0.78 (≈ 1.02 µM) | 0.78 (≈ 1.02 µM) | 0.01 (≈ 0.013 µM) | 0.05 (≈ 0.0651 µM) | > 100 | ≤ 0.005 | 1.56 (≈ 2.03 µM) | 50 (≈ 65.1 µM) | MIC ([5]; S. aureus A5177): 6.2 µg/mL (≈ 8.07 µM); MIC [14]: > 100 µg/mL; MIC (ESCHERICHIA COLI H560): 50 µg/mL (≈ 65.1 µM); MIC [15]: 0.2 µg/mL (≈ 0.26 µM); MIC [16]: 100 µg/mL (≈ 130 µM); MIC [17]: 3.1 µg/mL (≈ 4.04 µM); MIC (CANDIDA ALBICANS CCH 442): > 100 µg/mL; MIC [18]: 0.1 µg/mL (≈ 0.13 µM); MIC [19]: 0.1 µg/mL (≈ 0.13 µM); MIC [20]: > 100 µg/mL |
| CC[C@H]1OC(=O)[C@H](C)C(=O)[C@H](C)[C@@H](O[C@@H]2O[C@H](C)C[C@H](N(C)C)[C@H]2O)[C@](C)(OC)C[C@@H](C)C2=N[C@@H]3CN(Cc4ccccc4)C[C@@H]3N3C(=O)O[C@@]1(C)[C@H]3[C@H]2C [Example 21] | 1.56 (≈ 2.03 µM) | > 100 | 0.78 (≈ 1.01 µM) | > 100 | 100 (≈ 130 µM) | 3.1 (≈ 4.03 µM) | 100 (≈ 130 µM) | > 100 | > 100 | > 100 | > 100 | 0.78 (≈ 1.01 µM) | 0.78 (≈ 1.01 µM) | 3.1 (≈ 4.03 µM) | 0.05 (≈ 0.065 µM) | 0.2 (≈ 0.26 µM) | > 100 | 0.01 (≈ 0.013 µM) | 0.39 (≈ 0.507 µM) | > 100 | MIC ([5]; S. aureus A5177, unit assumed): 0.78 µg/mL (≈ 1.01 µM); MIC [21]: 0.05 µg/mL (≈ 0.065 µM); MIC [22]: 100 µg/mL (≈ 130 µM); MIC [14]: > 100 µg/mL; MIC (ESCHERICHIA COLI H560): 50 µg/mL (≈ 65 µM); MIC [15]: 6.2 µg/mL (≈ 8.06 µM); MIC [16]: > 100 µg/mL; MIC (CANDIDA ALBICANS CCH 442): > 100 µg/mL; MIC [18]: 0.78 µg/mL (≈ 1.01 µM); MIC [19]: 0.78 µg/mL (≈ 1.01 µM); MIC (PSEUDOMONAS CEPACIA 296I): > 100 µg/mL; MIC [20]: > 100 µg/mL |
